Source: patent US20210290648A1, “Potentiation of B-Lactam Antibiotics and B-Lactam/B-Lactamase Inhibitor Combinations Against Multidrug and Extensively Drug-Resistant Pseudomonas Aeruginosa Using Non-Ribosomal Tobramycin-Cyclam Conjugates” (University of Manitoba, priority 2018, published 2021)

System: β-lactamase-harboring MDR P. aeruginosa clinical isolates
Test: Triple combination susceptibility (β-lactam + avibactam + compound 2)
Assay type: cell-based, Pseudomonas aeruginosa
Excerpt: The diazabicyclooctane β-lactamase inhibitor, avibactam, is able to inhibit a wide range of serine β-lactamases (class A, C, and D) but not metallo-β-lactamases (class B) (50, 51).^50,51 However, the high concentration of avibactam required to neutralize the effects of β-lactamase enzymes in these phenotypes is indicative of concomitant permeability barriers in the isolates, such as reduced porin uptake. […] The results of this study are shown in (FIG. 6). All isolates were resistant to all three β-lactam antibiotics used for the study. […] As expected, the study with meropenem was slightly different from others.
Antimicrobial Susceptibility Assay. The in vitro antimicrobial activity of all compounds/antibiotics against a panel of bacteria was evaluated by microbroth dilution method in accordance with the Clinical and Laboratory Standards Institute (CLSI) guidelines. Overnight grown bacterial cultures were diluted in saline to achieve a 0.5 McFarland turbidity, followed by 1:50 dilution in Mueller-Hinton broth (MHB) for inoculation to a final concentration of approximately 5×10^5CFU/mL. The antimicrobial agents were 2-fold serially diluted in MHB in a 96-well plate and incubated at 37° C. with equal volumes of inoculum for 18 h. The lowest concentration that prevented the visible growth of bacteria was defined as the MIC for each antimicrobial agent. The broth with or without bacterial cells was used as positive or negative control, respectively.
Checkerboard Assay. Combination studies with different antibiotics were performed in 96-well plates as previously described (22). Briefly, the antibiotic of interest was serially diluted in MHB along the abscissa while the adjuvant (newly synthesized conjugates) was serially diluted in MHB along the ordinate. This creates a 10×7 matrix wherein each well consists of a combination of different antibiotic and adjuvant concentrations. Overnight grown bacterial cultures were diluted in saline to achieve a 0.5 McFarland turbidity, followed by 1:50 dilution in Mueller-Hinton broth (MHB) for inoculation to a final concentration of approximately 5×10^5CFU/mL. Equal volume of this bacterial culture was then added to each well and incubated at 37° C. for 18 h. After incubation, the plates were read on EMax® Plus microplate reader (Molecular Devices, Sunnyvale, Calif., USA) at 590 nm. MIC was recorded as wells with the lowest concentration of drugs with no bacterial growth. The fractional inhibitory concentration (FIC) for each antibiotic was calculated by dividing the MIC of the antibiotic in the presence of adjuvant by the MIC of the antibiotic alone. Similarly, the FIC of adjuvant was calculated by dividing the MIC of the adjuvant in the presence of antibiotic by the MIC of the adjuvant alone. FIC index is the sum of both FICs. FIC indices of <0.5 were deemed synergistic; 0.5-4, no interaction; and >4, antagonistic.

`NC(=O)[C@@H]1CC[C@@H]2CN1C(=O)N2OS(=O)(=O)O` [Avibactam] was tested, and the “concentration that completely reverses resistance to ceftazidime and aztreonam” value (16-64 μM, not meropenem) was 4 to 16 µg/mL, the “isolates reaching aztreonam susceptibility breakpoint (≤8 μg/ml)” value (aztreonam + single adjuvant 8 μM) was “three out of five” and the “isolates reaching ceftazidime susceptibility breakpoint (≤8 μg/ml)” value (ceftazidime + single adjuvant 8 μM) was “four out of five”. The “isolates reaching meropenem susceptibility level” value (meropenem + single adjuvant 8 μM) was “one of five” and the potentiation of ceftazidime (single adjuvant at 8 μM, five isolates) was 4-16 fold.
